Measurements from patent publication EP4101830A1, “NOVEL DIARYLIODONIUM SALT MIXTURES AS LOW MOLECULAR WEIGHT PHOTOINITIATORS WITH MINIMIZED CRYSTALLIZATION BEHAVIOR AND ELEVATED SOLUBILITY” (FEW Chemicals GmbH, priority 2021, dated 2022).
Structures can show the parent of a compound that is named as a salt.

Tests used:
[1] = Solubility of photoinitiator in sol-gel coating and layer (visual); type: physicochemical; settings: sol-gel coating on PET foil; result in words
Protocol: A sol-gel coating solution consisting of 15% TEOS, 5% epoxy-modified silanes, 75% organic solvents, and 5% water was prepared according to protocols known (R.B. Figueira et al.; Journal of Coatings Technology and Research 2015, 12, 1-35). To 10 g of this coating solution were added 0.05 g of photoinitiator test compounds (see Table 5/example 7), followed by 1 hour of stirring at room temperature. This solution was applied to a PET foil at a wet thickness of 30 µm by a doctor blade device. This material was illuminated at 254 nm for 2 min or for 5 min (UV-Crosslinker device; UVP). The abrasion resistance (500 cycles) was determined with a standard method (taber-abraser) and the decrease in gloss was measured. […] TABLE 5 / Example 7

[2] = Solubility in nonpolar solvents (MEK/dowanol 1:1); type: physicochemical; settings: measured in MEK/dowanol 1:1
From the text: Thus, efficacy of photoinitiation, when given by radicals per mass, is higher for low molecular weight mixtures of the embodiment. Furthermore, the solubility in nonpolar solvents (such as ketones, ethers, esters) is improved.

SMILES	solubility in the coating and layer [1]	solubility [2]
CC(C)(C)c1ccc([I+]c2ccc(C(C)(C)C)cc2)cc1.FC(F)(F)C([O][Al-]([O]C(C(F)(F)F)(C(F)(F)F)C(F)(F)F)([O]C(C(F)(F)F)(C(F)(F)F)C(F)(F)F)[O]C(C(F)(F)F)(C(F)(F)F)C(F)(F)F)(C(F)(F)F)C(F)(F)F [bis-(4-tert.-butyl-phenyl)-iodonium tetrakis(perfluoro-tert.-butoxy)aluminate]	visible precipitates and spots in the coat	
CC(C)(C)c1ccc([I+]c2ccc(C(C)(C)C)cc2)cc1 [comparative iodonium salt 1, bis[4-(1,1-dimethylethyl)phenyl]-iodonium tetraphenylborate]		149 mg/mL
